Legend:
Type in all cases: in vivo
maize = experiment: Field comprehensive test of mixing thidiazuron and polyglutamic acid on growth regulation and production increase of maize; details: 40 a.i. mg/kg
Experimental: (§1) Thidiazuron and polyglutamic acid were diluted with acetone according to a certain concentration and were sprayed to stems and leaves of crops, and influence of concentrations on growth of crops is assayed in the field, including comprehensive evaluation on plant height, spike number, setting percentage, disease-resistant condition, yield condition and the like of the crops. Plant height control rate=(plant height of a clean water control group-processed plant height)/plant height of the clean water control group*100% Spike number increase ratio=(processed plant spike number-plant spike number of a clean water control group)/plant spike number of the clean water control group*100% Setting percentage=filled grain number per spike/total grain number per spike*100% Prevention effect=(disease index of a clean water control group-processed disease index)/disease index of the clean water control group*100% Yield per mu increase ratio=(processed yield per mu-yield per mu of a clean water control group)/yield per mu of the clean water control group*100%
(§2) 1. Field Comprehensive Test of Mixing Thidiazuron and Polyglutamic Acid on Growth Regulation and Disease Resistance and Production Increase of Maize Crops
(§3) Sorghum variety: Suyu 23.
Pesticide application stage: a big horn stage of maize and a blooming stage of maize in which diseases such as Southern corn leaf blight are prone to occur.
Pesticide application number of times: 2 times, 6 days asan interval. The examples of the preparation of the present invention are sprayed for three repeated times, and the result is the mean value.

[1] = test system: Southern corn leaf blight; experiment: Prevention of Southern corn leaf blight in the maize field comprehensive test; details: 40 a.i. mg/kg
Experimental: as §1, §2, §3
Pesticide application stage: a big horn stage of maize and a blooming stage of maize in which diseases such as Southern corn leaf blight are prone to occur. […]

indica = experiment: Comprehensive assay of compounding thidiazuron and polyglutamic acid on growth regulation of indica (field, stem and leaf spraying); details: 50 a.i. mg/kg
Experimental: (§4) 1. Comprehensive Assay Test of Compounding Thidiazuron and Polyglutamic Acid on Growth Regulation of Indica
as §1

[2] = test system: banded sclerotial blight of indica; experiment: Disease control of banded sclerotial blight in the indica comprehensive assay; details: 50 a.i. mg/kg
Experimental: as §4, §1

O=C(Nc1ccccc1)Nc1cnns1 [Thidiazuron]
Stem Diameter (maize): 2.50 cm
Thousand seed weight (maize): 249.0 g
Plant Height (maize; applied 2 times, 6 days interval, mean of three repeats): 129.0 cm
Control Rate (plant height) (maize; vs clean water control group): 5.4%
Increase Ratio (output, unit yield per mu) (maize; vs clean water control group): 6.1%
Increase Ratio (stem diameter) (maize; vs clean water control group): 5.4%
Increase Ratio (thousand seed weight) (maize; vs clean water control group): 5.4%
Output (maize; yield per mu): 637.9 667M^2
Southern corn leaf blight ([1]; disease index): 14.74
Prevention Effect ([1]; Southern corn leaf blight, vs clean water control group): 51.11%
Spike Number of Single Plant (indica): 18.1 grains
Total Grain Number of Spike (indica): 145.7 grains
filled grain number per spike (indica): 132.2 grains
Setting Percentage (indica; filled grain number per spike/total grain number per spike): 90.7%
Plant Height (indica; stem and leaf spraying 2 times, 8 days interval, investigated at later grouting stage): 121.2 cm
Plant Height Control Rate (indica; vs clean water control group): 5.0%
Production Increase Ratio (yield per mu increase ratio) (indica; vs clean water control group): 5.5%
Spike Number Increase Ratio (indica; vs clean water control group): 4.0%
Output (indica; yield per mu): 537.5 667 M^2
Prevention Effect ([2]; banded sclerotial blight of indica, vs clean water control group): 49.8%
Disease Index of Banded Sclerotial Blight ([2]; indica): 14.8

— patent US11576383B2, “Pesticide composition containing thidiazuron and polyglutamic acid” (JIANGSU HUIFENG BIO AGRICULTURE CO., LTD., priority 2017, dated 2023)
